Test results: ChEMBL document CHEMBL1201862, “PubChem BioAssay data set” (2004)
Blank lines part the entries; values can stand above or below the compound they belong to. The source made the active and inactive calls.

Columns and labels:
[1] = Artemis endonuclease inhibitor potency, dose response, biochemical, fluorescence intensity (AID 720701); type: functional;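 note: Artemis endonuclease enzyme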
[2] = AlphaScreen signal interference compounds, dose response, artefact control for ARNT-TACC3 interaction inhibitor project, biochemical, luminescence, cherry-pick (AID 651705); type: functional;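 note: AlphaScreen bead proximity signal that flags compounds interfering with the detection technology; potency reflects signal decrease which marks the compound as an assay artifact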
Mucolipin-3 = Mucolipin-3 (Homo sapiens, UniProt Q8TDD5); assay: Dose response cell-based high-throughput screening assay for agonists of the transient receptor potential channel ML3 (TRPML3). [Related pubchem assays: 1526, 1424, 1448 ]; type: functional
[3] = biological target: T1, Low molecular weight phosphotyrosine protein phosphatase (Homo sapiens, UniProt P24666); type: functional; conditions: read-out: IC50_Mean
T1 sequence (P24666 whole entry): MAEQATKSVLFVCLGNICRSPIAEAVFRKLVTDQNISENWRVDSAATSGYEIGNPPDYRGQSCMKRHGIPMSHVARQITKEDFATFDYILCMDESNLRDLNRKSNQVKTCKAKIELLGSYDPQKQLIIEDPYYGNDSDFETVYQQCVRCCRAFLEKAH

Ion channel NompC = Ion channel NompC (Danio rerio, UniProt Q7T1G6); assay: Fluorescence counterscreen assay for TRPML3 agonists: dose response cell-based high-throughput screening assay to identify agonists of the transient receptor potential channel N1 (TRPN1). [Related pubchem assays: 1526, 1424, 1448 ]; type: functional
[4] = biological target: T1, Low molecular weight phosphotyrosine protein phosphatase; type: functional; conditions: read-out: IC50_Mean; remark: listed apart in the source
[5] = biological target: T2, Heat shock factor protein 1 (Mus musculus, UniProt P38532); assay: HSF1 potentiators in luciferase reporter cells, confirmation, cell-based, NIH3T3, luminescence, dose retest (AID 435004); type: functional;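 note: stress induced by proteasome inhibitor MG132 added 30 min after compound; luciferase reporter driven by HSF1 response element in NIH3T3 cells; actives raise luminescence as potentiators of the MG132 stress response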
T2 sequence (P38532 whole entry): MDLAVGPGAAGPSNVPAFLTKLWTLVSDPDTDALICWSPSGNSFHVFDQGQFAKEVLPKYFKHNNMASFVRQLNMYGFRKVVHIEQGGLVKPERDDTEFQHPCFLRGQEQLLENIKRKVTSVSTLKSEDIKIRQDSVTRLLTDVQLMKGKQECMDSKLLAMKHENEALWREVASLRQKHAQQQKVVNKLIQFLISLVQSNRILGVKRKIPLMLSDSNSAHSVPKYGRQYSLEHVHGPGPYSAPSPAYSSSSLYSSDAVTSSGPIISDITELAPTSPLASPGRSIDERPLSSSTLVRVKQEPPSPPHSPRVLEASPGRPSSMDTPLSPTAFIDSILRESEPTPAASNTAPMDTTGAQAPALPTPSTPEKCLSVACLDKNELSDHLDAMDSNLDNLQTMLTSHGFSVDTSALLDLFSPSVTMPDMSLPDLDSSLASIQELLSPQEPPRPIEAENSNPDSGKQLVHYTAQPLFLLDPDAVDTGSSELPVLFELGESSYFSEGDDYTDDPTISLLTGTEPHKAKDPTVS

[6] = biological target: Hepatocyte nuclear factor 4-alpha (Homo sapiens, UniProt P41235); type: functional, cell-based;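 note: biochemical luminescence-based dose-response counterscreen measuring inhibition of HNF4 dimerization, run alongside a screen for blockers of ABHD5–perilipin-5 interaction; split luciferase complementation of HNF4 fusion proteins in cell lysate measuring dimerization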
[7] = biological target: ADP-ribosylation factor GTPase-activating protein 1 (Rattus norvegicus, UniProt Q62848); assay: Fluorescence polarization-based biochemical high throughput dose response screening assay to identify inhibitors of ADP-ribosylation factor GTPase activating protein 1 (ARFGAP1).; type: functional
Fatty acid synthase [8] = biological target: T3, Fatty acid synthase (Homo sapiens, UniProt P49327); assay: FAS thioesterase domain inhibitors, dose response, biochemical, endpoint fluorescence intensity, uHTS hits (AID 624327); type: functional;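 note: fluorescence from hydrolysis of an O-methyl fluorescein acyl ester substrate by the enzyme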
[9] = biological target: T4, Sentrin-specific protease 1 (Homo sapiens, UniProt Q9P0U3); assay: potency of human SENP1 inhibitors, dose response, biochemical, kinetic FRET (AID 651697); type: functional; conditions: read-out: IC50_Mean
Fatty acid synthase [10] = biological target: T3, Fatty acid synthase; assay: FAS thioesterase domain inhibitors, dose response, biochemical, kinetic fluorescence intensity (AID 624326); type: functional;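 note: rate of fluorescence rise from hydrolysis of a fluorogenic O-methyl fluorescein ester substrate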
[11] = biological target: T4, Sentrin-specific protease 1; assay: Dose response confirmation of small molecule inhibitors of the catalytic domain of the SUMO protease, SENP1 in a FRET assay.; type: functional; conditions: read-out: IC50_Mean

T3 sequence (P49327 whole entry, the tested form may be a part): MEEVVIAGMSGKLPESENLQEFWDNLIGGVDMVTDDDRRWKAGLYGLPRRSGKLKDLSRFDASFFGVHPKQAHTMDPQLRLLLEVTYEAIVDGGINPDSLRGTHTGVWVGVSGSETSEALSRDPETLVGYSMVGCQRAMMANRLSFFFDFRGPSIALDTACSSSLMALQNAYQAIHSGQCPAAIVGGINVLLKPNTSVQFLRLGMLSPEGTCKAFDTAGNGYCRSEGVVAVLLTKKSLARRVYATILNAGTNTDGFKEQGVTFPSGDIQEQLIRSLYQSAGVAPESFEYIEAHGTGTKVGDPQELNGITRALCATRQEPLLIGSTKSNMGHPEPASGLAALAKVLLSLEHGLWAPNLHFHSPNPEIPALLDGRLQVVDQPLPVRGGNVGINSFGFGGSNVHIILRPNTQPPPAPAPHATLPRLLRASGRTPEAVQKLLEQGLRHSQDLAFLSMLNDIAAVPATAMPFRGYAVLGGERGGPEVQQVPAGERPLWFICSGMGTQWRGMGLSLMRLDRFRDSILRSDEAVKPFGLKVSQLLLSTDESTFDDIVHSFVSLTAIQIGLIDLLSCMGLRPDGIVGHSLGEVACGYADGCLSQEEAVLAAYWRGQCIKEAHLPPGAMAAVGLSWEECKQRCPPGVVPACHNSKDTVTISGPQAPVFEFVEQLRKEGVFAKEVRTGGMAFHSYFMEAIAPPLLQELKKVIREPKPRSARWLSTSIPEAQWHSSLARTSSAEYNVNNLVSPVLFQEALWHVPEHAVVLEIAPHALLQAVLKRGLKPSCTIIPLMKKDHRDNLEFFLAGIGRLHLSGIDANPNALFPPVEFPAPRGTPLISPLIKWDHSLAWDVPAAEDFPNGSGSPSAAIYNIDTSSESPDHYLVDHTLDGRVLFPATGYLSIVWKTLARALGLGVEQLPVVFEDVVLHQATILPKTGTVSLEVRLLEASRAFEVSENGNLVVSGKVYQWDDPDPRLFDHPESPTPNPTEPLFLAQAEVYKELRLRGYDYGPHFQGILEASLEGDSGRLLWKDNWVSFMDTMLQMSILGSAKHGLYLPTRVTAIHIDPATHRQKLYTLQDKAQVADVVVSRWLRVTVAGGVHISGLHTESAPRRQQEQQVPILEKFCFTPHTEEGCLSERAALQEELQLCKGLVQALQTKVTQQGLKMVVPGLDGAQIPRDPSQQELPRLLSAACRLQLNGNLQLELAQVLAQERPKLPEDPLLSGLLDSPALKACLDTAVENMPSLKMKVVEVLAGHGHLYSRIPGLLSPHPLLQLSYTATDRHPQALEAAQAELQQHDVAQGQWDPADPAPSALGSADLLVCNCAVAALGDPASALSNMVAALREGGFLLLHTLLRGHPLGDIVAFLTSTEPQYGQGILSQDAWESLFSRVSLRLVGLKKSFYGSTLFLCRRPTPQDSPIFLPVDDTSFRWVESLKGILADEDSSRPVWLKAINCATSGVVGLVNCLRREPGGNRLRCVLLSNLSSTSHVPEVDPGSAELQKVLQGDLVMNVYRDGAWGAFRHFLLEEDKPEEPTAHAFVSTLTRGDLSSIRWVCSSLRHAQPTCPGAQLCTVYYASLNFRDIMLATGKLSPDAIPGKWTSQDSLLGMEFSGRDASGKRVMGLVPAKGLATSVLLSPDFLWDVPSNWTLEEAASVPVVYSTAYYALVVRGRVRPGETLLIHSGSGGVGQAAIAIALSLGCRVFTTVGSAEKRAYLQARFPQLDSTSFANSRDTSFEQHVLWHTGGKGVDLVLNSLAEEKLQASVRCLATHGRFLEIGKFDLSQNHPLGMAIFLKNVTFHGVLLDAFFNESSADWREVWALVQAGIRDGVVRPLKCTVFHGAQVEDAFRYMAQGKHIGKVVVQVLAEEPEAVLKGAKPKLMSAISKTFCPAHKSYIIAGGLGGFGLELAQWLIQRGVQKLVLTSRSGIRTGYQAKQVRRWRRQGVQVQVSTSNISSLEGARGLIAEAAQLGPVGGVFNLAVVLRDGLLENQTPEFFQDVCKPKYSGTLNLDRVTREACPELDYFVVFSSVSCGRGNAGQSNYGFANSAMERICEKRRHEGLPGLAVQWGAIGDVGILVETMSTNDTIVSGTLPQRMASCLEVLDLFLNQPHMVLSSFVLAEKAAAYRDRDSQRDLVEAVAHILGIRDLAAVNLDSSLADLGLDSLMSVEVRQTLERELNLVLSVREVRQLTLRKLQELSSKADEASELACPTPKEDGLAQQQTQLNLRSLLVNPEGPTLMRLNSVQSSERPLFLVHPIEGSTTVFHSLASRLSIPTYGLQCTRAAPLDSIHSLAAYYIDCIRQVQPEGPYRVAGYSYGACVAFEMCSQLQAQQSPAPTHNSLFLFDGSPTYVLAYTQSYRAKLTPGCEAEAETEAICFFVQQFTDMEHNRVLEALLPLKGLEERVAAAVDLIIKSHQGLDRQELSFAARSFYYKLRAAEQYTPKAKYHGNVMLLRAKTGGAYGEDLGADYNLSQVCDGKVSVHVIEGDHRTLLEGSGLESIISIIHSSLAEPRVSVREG
T4 sequence (Q9P0U3 whole entry, the tested form may be a part): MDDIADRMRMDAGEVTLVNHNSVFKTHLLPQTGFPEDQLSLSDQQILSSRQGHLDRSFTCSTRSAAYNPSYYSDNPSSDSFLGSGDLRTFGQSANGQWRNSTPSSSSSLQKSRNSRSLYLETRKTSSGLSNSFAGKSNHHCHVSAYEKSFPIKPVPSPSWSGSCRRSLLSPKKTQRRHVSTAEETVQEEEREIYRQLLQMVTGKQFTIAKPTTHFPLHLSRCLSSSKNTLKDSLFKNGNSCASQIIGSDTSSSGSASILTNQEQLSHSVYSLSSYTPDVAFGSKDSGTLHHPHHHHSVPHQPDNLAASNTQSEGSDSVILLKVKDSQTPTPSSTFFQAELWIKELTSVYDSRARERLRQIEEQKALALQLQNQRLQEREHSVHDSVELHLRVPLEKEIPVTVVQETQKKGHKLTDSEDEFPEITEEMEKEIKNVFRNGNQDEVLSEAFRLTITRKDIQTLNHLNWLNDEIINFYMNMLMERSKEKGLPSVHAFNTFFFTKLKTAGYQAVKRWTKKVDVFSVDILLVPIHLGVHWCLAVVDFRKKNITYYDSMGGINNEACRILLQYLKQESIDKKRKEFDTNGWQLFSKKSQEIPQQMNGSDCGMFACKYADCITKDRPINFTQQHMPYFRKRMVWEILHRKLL
Sequence of Mucolipin-3 (Q8TDD5 whole entry): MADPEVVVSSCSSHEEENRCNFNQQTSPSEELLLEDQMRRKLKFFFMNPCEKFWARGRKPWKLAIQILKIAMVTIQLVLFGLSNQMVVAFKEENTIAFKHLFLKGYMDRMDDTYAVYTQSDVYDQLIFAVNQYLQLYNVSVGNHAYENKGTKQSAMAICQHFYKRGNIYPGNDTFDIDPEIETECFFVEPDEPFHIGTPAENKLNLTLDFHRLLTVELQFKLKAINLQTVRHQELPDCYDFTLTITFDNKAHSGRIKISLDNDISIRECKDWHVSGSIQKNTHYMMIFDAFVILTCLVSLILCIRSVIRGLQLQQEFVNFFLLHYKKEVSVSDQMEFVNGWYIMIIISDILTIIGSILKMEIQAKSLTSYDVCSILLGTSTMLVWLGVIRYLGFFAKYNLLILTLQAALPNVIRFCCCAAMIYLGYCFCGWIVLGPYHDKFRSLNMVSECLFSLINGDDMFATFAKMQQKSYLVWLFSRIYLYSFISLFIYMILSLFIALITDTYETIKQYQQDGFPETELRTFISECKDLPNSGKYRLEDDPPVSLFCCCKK
Sequence of Hepatocyte nuclear factor 4-alpha (P41235 whole entry, the tested form may be a part): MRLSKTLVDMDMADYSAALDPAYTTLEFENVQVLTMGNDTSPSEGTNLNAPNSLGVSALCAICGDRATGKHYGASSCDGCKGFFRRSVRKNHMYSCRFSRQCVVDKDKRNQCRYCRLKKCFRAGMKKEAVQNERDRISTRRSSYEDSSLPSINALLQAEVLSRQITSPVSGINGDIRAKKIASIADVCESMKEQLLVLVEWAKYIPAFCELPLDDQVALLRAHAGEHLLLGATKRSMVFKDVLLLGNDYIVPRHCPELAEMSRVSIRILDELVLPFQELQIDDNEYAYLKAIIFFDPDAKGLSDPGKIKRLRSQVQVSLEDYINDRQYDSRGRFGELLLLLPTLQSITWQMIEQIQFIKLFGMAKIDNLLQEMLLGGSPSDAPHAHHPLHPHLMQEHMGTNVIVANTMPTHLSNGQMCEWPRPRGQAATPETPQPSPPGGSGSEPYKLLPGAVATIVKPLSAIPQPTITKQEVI
Sequence of ADP-ribosylation factor GTPase-activating protein 1 (Q62848 whole entry, the tested form may be a part): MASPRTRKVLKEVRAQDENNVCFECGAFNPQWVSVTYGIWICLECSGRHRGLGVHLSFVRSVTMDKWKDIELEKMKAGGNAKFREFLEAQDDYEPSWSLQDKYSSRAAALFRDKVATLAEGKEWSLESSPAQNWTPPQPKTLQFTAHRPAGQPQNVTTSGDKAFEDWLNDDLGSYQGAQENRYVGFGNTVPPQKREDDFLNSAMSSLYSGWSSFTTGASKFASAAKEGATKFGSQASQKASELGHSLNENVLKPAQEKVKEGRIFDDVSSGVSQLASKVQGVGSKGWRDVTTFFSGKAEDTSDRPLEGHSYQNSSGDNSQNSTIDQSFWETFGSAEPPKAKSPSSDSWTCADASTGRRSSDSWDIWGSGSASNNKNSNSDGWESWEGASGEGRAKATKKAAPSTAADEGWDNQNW

IC50 [6]: 6.09 µM (active)
Structure (SMILES): O=C(NCc1ccccc1)C(C1CC1)n1c(=O)c(-c2ccco2)nc2ccccc21 (stereo not drawn)

IC50 [7]: 17.8 µM (inactive)
Structure (SMILES): Cc1cc([N+](=O)[O-])c(C)cc1-c1ccc(/C=N/NC(=O)Cn2nnnc2N)o1

Second part, the compound before the results:

Structure (SMILES): C/C(CC(=O)Nc1ccc(N(C)C)cc1)=N\NC(=O)c1ccccn1
IC50 [1]: > 20 µM (inactive) | AC50 [2]: 78 µM (active)

Structure (SMILES): O=C(O)c1csc(N/N=C/c2ccc(Br)cc2)n1
EC50 (Mucolipin-3): > 29.9 µM (not active) | IC50 [3]: > 80 µM (inactive) | EC50 (Ion channel NompC): > 29.9 µM (not active) | IC50 [4]: 47.3 µM (inactive) | EC50 [5]: > 260 µM (inactive)

Structure (SMILES): Cc1coc(NC(=O)CSc2nc(-c3ccncc3)cc(C(F)(F)F)c2C#N)n1
IC50 (Fatty acid synthase [8]): 18.5 µM (active) | IC50 [9]: 35.9 µM (inactive) | IC50 (Fatty acid synthase [10]): 14.8 µM (active) | IC50 [11]: 25.4 µM (inactive)
